The text below walks through data of patent publication US12037324B2, “Biarylmethyl heterocycles” (Université de Montréal, priority 2016, dated 2024).

Structures are written as SMILES. Where only a bound is given, the exact number is not on record here.

Test [1] deals with T1, hAT1R (Homo sapiens, UniProt P30556).
T1 sequence (P30556 1-359): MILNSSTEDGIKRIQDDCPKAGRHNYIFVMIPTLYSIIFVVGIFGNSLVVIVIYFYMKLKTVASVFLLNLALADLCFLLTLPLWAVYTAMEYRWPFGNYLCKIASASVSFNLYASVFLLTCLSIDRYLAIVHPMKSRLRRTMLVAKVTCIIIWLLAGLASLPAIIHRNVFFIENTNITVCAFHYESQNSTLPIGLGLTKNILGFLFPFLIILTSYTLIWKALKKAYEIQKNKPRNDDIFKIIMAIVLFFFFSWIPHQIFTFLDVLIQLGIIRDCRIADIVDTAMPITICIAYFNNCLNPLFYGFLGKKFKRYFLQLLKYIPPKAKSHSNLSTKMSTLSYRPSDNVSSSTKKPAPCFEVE
Description: cell-based. The following applies: agonist mode; for EC50: read-out: BRET P63 EC50.

The target in test [2] is T1, hAT1R. Description: cell-based.
Test [3] deals with T2, AGTR1 (Homo sapiens, UniProt P30556).
T2 construct: host or cells: Pathunter CHO-K1 AGTR1 β-arrestin cell line (CHO-K1)
T2 sequence (P30556 1-359): T1 sequence (P30556 1-359)
Description: DiscoveRx β-arrestin2 recruitment assay (enzyme complementation, Pathunter CHO-K1 AGTR1 β-arrestin cell line). It is filed as cell-based. The following applies: DiscoveRx β-arrestin2 recruitment; for DiscoveRx β-arrestin2 Ymax (%): maximal response. The method, boiled down: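 CHO-K1 cells expressing AGTR1 with β-arrestin2 enzyme-complementation reporter, plated 14-16 h ahead in 1% serum medium, then exposed to compounds for 90 min at 37° C. Chemiluminescence read after 1 h detection. EC50 (agonist) or IC50 (antagonist) from 4-parameter logistic fit; activity as percentage of All maximal effect.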
(Activated receptors often draw arrestin, which recruitment assays turn into a signal.)

Test [4] concerns the target T1, hAT1R. Description: BRET β-arrestin2 biosensor assay, higher receptor expression (hAT1R 5 ng/well), HEK293 cells. In kind it is cell-based. The following applies: for EC50: High AT1R Expression. In general terms: BRET reads energy transfer from a luciferase to a nearby fluorophore.
Test [5] addresses T2, AGTR1. Description: DiscoveRx IP1 accumulation assay (HTRF), agonist mode, Pathunter CHO-K1 AGTR1 β-arrestin cell line. It is filed as cell-based. The note with it: for EC50: read-out: IP-1 EC50. Put shortly:
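Agonist mode in CHO-K1 AGTR1 β-arrestin cells plated 14-16 h before; compounds at varying concentrations for 90 min at 37° C, IP1 accumulation read by HTRF (D2-conjugate and anti-IP1 cryptate, 20 min room temperature). EC50 from 4-parameter logistic fit; activity given as percentage of maximal AII effect.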
On the technique in general: TR-FRET usually uses a lanthanide donor and a delayed reading to cut background.

[6] abbreviates: section of the 42nd table ending at r951, example numbering restarts after the DiscoveRx section, read-out: β-arrestin2 EC50.
Where [7] appears, read: Low AT1R Expression, read-out: BRET β-Arrestin2 Low AT1R Expression EC50.

A word on the EC50: it is the concentration needed to bring the measured effect to its halfway point. Consider `CC1=NC2(CCOCC2)C(=O)N1Cc1ccc(-c2cc(-c3cc(C)ccn3)ccc2-c2nn[nH]n2)cc1` [Example 173, 2-methyl-3-((5′-(4-methylpyridin-2-yl)-2′-(2H-tetrazol-5-yl)-[1,1′-biphenyl]-4-yl)methyl)-8-oxa-1,3-diazaspiro[4.5]dec-1-en-4-one], for which, at hAT1R [1], the “BRET P63 Ymax” value came out at 19.3% and the EC50 is 0.0791 µM. Besides, at hAT1R [2] (setting [6]), the EC50 is 0.0804 µM.

For the molecule `CCOc1nc2cccc(C(=O)O)c2n1Cc1ccc(-c2cc(-c3ccc(C)cn3)ccc2-c2noc(=O)[nH]2)cc1` [Example 300, 2-ethoxy-1-((5′-(5-methylpyridin-2-yl)-2′-(5-oxo-4,5-dihydro-1,2,4-oxadiazol-3-yl)-[1,1′-biphenyl]-4-yl)methyl)-1H-benzo[d]imidazole-7-carboxylic acid], the “BRET P63 Ymax” value at hAT1R [1] came to 25.1%. The figures for the EC50 on hAT1R [1] and on hAT1R [2] (setting [6]) were 0.009 µM and 0.0128 µM, respectively.

In the case of `CCCCc1nc(Cl)c(C(=O)O)n1Cc1ccc(-c2cc(Oc3cccnc3)ccc2-c2nn[nH]n2)cc1` [Example 428], the EC50 was greater than 10 µM on hAT1R [1] and 0.122 µM at hAT1R [2] (setting [6]).

In the case of `CCOc1nc2cccc(C(=O)O)c2n1Cc1ccc(-c2cc(OC3CCCCC3)ccc2-c2nn[nH]n2)cc1` [Example 343], on hAT1R [1], the “BRET P63 Ymax” value stood at 15.3% and the EC50 was 0.0267 µM. In addition, at hAT1R [2] (setting [6]), the EC50 is 0.0262 µM.

With `CCc1nc2c(C)cc(C)nc2n1Cc1ccc(-c2cc(-c3cn(CC(F)F)nn3)ccc2-c2nnn[nH]2)cc1` [Example 242], on hAT1R [1], the “BRET P63 Ymax” value is listed as 45.6%. In addition, the figures for the half-maximal effective concentration (EC50) on hAT1R [1] and on hAT1R [2] (setting [6]) were 0.0416 µM and 0.0282 µM, respectively.

Turning to `CCOc1nc2cccc(C(=O)O)c2n1Cc1ccc(-c2cc(-c3cccc(C)n3)ccc2-c2noc(=O)[nH]2)cc1` [Example 304], on hAT1R [1], the “BRET P63 Ymax” value is 17.3% and the EC50 was found to be 0.0297 µM. In addition, the EC50 at hAT1R [2] (setting [6]) is 0.0383 µM.

For the molecule `CCOc1nc2cccc(C(=O)O)c2n1Cc1ccc(-c2cc(-n3cc(C)cn3)ccc2-c2nn[nH]n2)cc1` [Example 340], at hAT1R [1], the “BRET P63 Ymax” value was determined as 17.3% and the EC50 is 0.0029 µM. Besides, the EC50 on hAT1R [2] (setting [6]) was found to be 0.0058 µM.

`CCc1nc2c(C)cc(C)nc2n1Cc1ccc(-c2cc(-n3cc(C(F)(F)F)cn3)ccc2-c2nnn[nH]2)cc1` [Example 224]: on hAT1R [1], the “BRET P63 Ymax” value is recorded as 20.8% and the EC50 worked out at 0.0113 µM. In addition, at hAT1R [2] (setting [6]), the EC50 was determined as 0.0076 µM.

In the case of `CCc1nc2c(C)cc(C)nc2n1Cc1ccc(-c2cc(-c3cccnc3OC)ccc2-c2nn[nH]n2)cc1` [Example 24, 2-ethyl-3-((5′-(2-methoxypyridin-3-yl)-2′-(2H-tetrazol-5-yl)-[1,1′-biphenyl]-4-yl)methyl)-5,7-dimethyl-3H-imidazo[4,5-b]pyridine], the EC50 is 0.0134 µM on AGTR1 [3], 0.0135 µM on hAT1R [4], 0.0207 µM at AGTR1 [5] and 0.0139 µM on hAT1R [2] (setting [7]). The “DiscoveRx β-arrestin2 Ymax (%)” value on AGTR1 [3] is listed as 24.1%. The “BRET β-Arrestin2 High AT1R Expression Ymax (%)” value on hAT1R [4] came to 73.1%. Besides, the “IP-1 Ymax (%)” value on AGTR1 [5] is 14.5%. Besides, on hAT1R [2] (Low AT1R Expression), the “BRET β-Arrestin2 Low AT1R Expression Ymax (%)” value was 21.6%.

Consider `CCc1nc2c(C)cc(C)nc2n1Cc1ccc(-c2cc(-c3ccccc3C(C)C)ccc2-c2nn[nH]n2)cc1` [Example 3], for which the EC50 at AGTR1 [3] stood at 0.0212 µM; on hAT1R [4], 0.0149 µM; at AGTR1 [5], 45.6 µM; on hAT1R [2] (setting [7]) it was 0.0242 µM. Also, the “DiscoveRx β-arrestin2 Ymax (%)” value at AGTR1 [3] is recorded as 22.9%. Further, the “BRET β-Arrestin2 High AT1R Expression Ymax (%)” value on hAT1R [4] was 79.6%. In addition, the “IP-1 Ymax (%)” value at AGTR1 [5] amounted to 29.9%. The “BRET β-Arrestin2 Low AT1R Expression Ymax (%)” value on hAT1R [2] (Low AT1R Expression) worked out at 30.6%.

With `CCc1nc2c(C)cc(C)nc2n1Cc1ccc(-c2cc(-c3ccc(C(=O)N(C)C)cc3)ccc2-c2nn[nH]n2)cc1` [Example 11], on AGTR1 [3], the midpoint of the response, the EC50, lay at 0.0099 µM and the “DiscoveRx β-arrestin2 Ymax (%)” value worked out at 36.3%. Besides, on hAT1R [4], the “BRET β-Arrestin2 High AT1R Expression Ymax (%)” value is 79.2% and the response was half-maximal at 0.022 µM (EC50). Also, on AGTR1 [5], the “IP-1 Ymax (%)” value was determined as 3.8% and the EC50 turned out to be 0.0178 µM. The “BRET β-Arrestin2 Low AT1R Expression Ymax (%)” value on hAT1R [2] (Low AT1R Expression) amounted to 16.9%. Moreover, the EC50 on hAT1R [2] (setting [7]) stood at 0.0353 µM.
